Laboratory results taken from PubChem BioAssay (NCI).
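Exposure lasted 48 hours, with cells grown in 96-well plates and compounds tested at five concentrations. The concentration for full growth arrest is given as TGI.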

Tests used:
Assay in all cases: DTP human tumour cell line panel, 48 h
BT-549 breast = test system: BT-549 breast
HCT-116 colon = test system: HCT-116 colon
HOP-62 NSCLC = test system: HOP-62 NSCLC
HOP-92 NSCLC = test system: HOP-92 NSCLC
HS 578T breast = test system: HS 578T breast
HT29 colon = test system: HT29 colon
IGROV1 ovarian = test system: IGROV1 ovarian
MDA-MB-231 breast = test system: MDA-MB-231 breast
NCI-H226 lung = test system: NCI-H226 lung
SF-268 CNS = test system: SF-268 CNS
SK-MEL-5 melanoma = test system: SK-MEL-5 melanoma
SN12C renal = test system: SN12C renal
SNB-19 CNS = test system: SNB-19 CNS
SNB-75 CNS = test system: SNB-75 CNS
SW-620 colon = test system: SW-620 colon
T-47D breast = test system: T-47D breast
UACC-257 melanoma = test system: UACC-257 melanoma

| SMILES | TGI (BT-549 breast) [µM] | TGI (HCT-116 colon) [µM] | TGI (HOP-62 NSCLC) [µM] | TGI (HOP-92 NSCLC) [µM] | TGI (HS 578T breast) [µM] | TGI (HT29 colon) [µM] | TGI (IGROV1 ovarian) [µM] | TGI (MDA-MB-231 breast) [µM] | TGI (NCI-H226 lung) [µM] | TGI (SF-268 CNS) [µM] | TGI (SK-MEL-5 melanoma) [µM] | TGI (SN12C renal) [µM] | TGI (SNB-19 CNS) [µM] | TGI (SNB-75 CNS) [µM] | TGI (SW-620 colon) [µM] | TGI (T-47D breast) [µM] | TGI (UACC-257 melanoma) [µM] |
| --- | --- | --- | --- | --- | --- | --- | --- | --- | --- | --- | --- | --- | --- | --- | --- | --- | --- |
| O=c1c2c3c(sc2nc2n1sc1nc4sc5c(c4c(=O)n12)CCCC5)CCCC3 | 42.4 | > 100 | > 100 | > 91.8 | > 100 | > 58.8 | > 100 | > 69.5 | 98.1 | > 100 | > 100 | > 100 | > 100 | > 32.8 | 63.5 | 17.1 | > 100 |
| NC(=S)NN=Cc1ccccc1OCc1cccc(COc2ccccc2C=NNC(N)=S)n1 | 31 | > 93.6 | 35.3 | 14.3 | > 100 | > 100 | 31.6 | 22.3 | > 89.6 | > 100 | > 100 | > 100 | 46.3 | 5.62 | > 100 | > 100 | > 100 |
| O=C(CNc1ccc([N+](=O)[O-])cc1)Nn1c(-c2ccccc2)nc2ccccc2c1=O | 4.25 | 13 | 16.5 | 6.66 | 8.22 | 13.6 | 12.9 | 9.4 | 25.2 | 16.4 | 2.61 | 5.19 | 23.1 | 11.3 | 5.02 | 9.63 | 36.7 |
| CC1=C(C)C2(C#N)C(=O)N3C(=NC(c4ccco4)NC3c3ccco3)C2(C#N)C(c2ccco2)N1 (centres undefined) | > 100 | > 100 | > 100 | > 100 | > 100 | > 100 | > 100 | > 100 | > 100 | > 100 | > 100 | > 100 | > 100 |  | > 100 | > 100 | > 100 |
| C=C(C)C1Cc2c(cc3c(c2O)c(=O)c2ccccc2n3C)O1 (centres undefined) | 3.28 | 4.94 | 25.2 | 21.3 | 28.7 | 7.32 | 4.16 | 6.72 | 6.77 | 14.2 | 8.02 | 7.52 | 12 | 17 | 5.68 | 21 | 30.7 |
| O=[N+]([O-])c1ccc(C2Nn3c(nnc3-c3cccc([N+](=O)[O-])c3)S2)cc1 (centres undefined) | > 100 | > 100 | > 100 | > 100 | > 100 | > 100 | > 100 | > 100 | > 100 | > 100 | > 100 | > 100 | > 100 | > 100 | > 100 | > 100 | > 100 |
| COC(=O)C(Cc1c(-c2[nH]c3ccccc3c2CC(NC(C)=O)C(=O)OC)[nH]c2ccccc12)NC(C)=O (centres undefined) | > 100 | > 100 | > 100 | > 100 | > 100 | > 100 | > 100 | > 100 | > 100 | > 100 | > 100 | > 100 | > 100 | > 100 | > 100 | > 100 | > 100 |
| CC(C)=NC(C(=O)O)C(C)(C)S (centres undefined) | > 100 | > 100 | > 100 | > 100 | > 100 | > 100 | > 100 | > 100 | > 100 | > 100 |  | > 100 | > 100 | > 100 | > 100 | > 100 | > 100 |
| Cc1ccc(S(=O)(=O)NC(=O)NC(CCCCN)C(=O)O)cc1 (centres undefined) | > 100 | > 100 | > 100 | > 100 | > 100 |  | > 100 | > 100 |  | > 100 | > 100 | > 100 | > 100 | > 100 | > 100 | > 100 | > 100 |
| Cc1ccc(NC(=O)CC(=O)N2N=C(N(c3ccccc3)c3ccccc3)CC2c2ccccc2)cc1 (centres undefined) | > 100 | > 100 | > 100 | > 100 | 86 | > 100 | > 100 | > 100 | > 100 | > 100 | > 100 |  | > 100 | > 100 | > 100 | > 100 | > 100 |
| O=C(Cc1csc2[n+]1C(=O)/C(=C/c1ccc(Cl)cc1)S2)Nc1ccccc1 | 60.3 | 42.5 | 30.4 | 78.4 | > 100 | 76.1 | > 100 | 37.3 | 49.6 | 78 | 26.6 | > 100 | > 100 | 94.6 | > 100 | > 100 | 58.3 |
| COc1ccc(/C=N/NS(=O)(=O)c2ccc(/C=C3\NC(=O)NC3=O)cc2)cc1 | > 100 | > 100 | > 100 | > 100 | > 100 | > 100 | > 100 | > 100 | > 100 | 86.9 | > 100 | > 100 | > 100 | 77.9 | > 100 | > 100 | > 100 |
| O=c1nc(N2CCCCC2)sc2[nH]c3ccccc3c12 | > 100 |  | > 100 | > 100 | > 100 | > 100 | > 100 | > 100 |  | > 100 | > 100 | > 100 | > 100 | > 100 | > 100 | > 100 | > 100 |
| C#CCNCC(=O)O | > 100 | > 100 | > 100 | > 100 | > 100 | > 100 | > 100 | > 100 | > 100 | > 100 | > 100 |  | > 100 |  | > 100 | > 100 | > 100 |
